According to patent US6046219A, “Method for the treatment of conditions mediated by collagen formation together with cell proliferation by application of inhibitors of protein hydroxylation” (Cornell Research Foundation, Inc., priority 1997, dated 2000):

Key:
[1] = system: cellular deoxyhypusyl hydroxylase; settings: Hanauske-Abel et al. 1994; cited from earlier work
cell proliferation = settings: Hanauske-Abel et al. 1994; cited from earlier work
[2] = molecular target: T1, purified human prolyl 4-hydroxylase (Homo sapiens, UniProt P13674); experiment: Assay of purified human prolyl 4-hydroxylase (14CO2 release from 2-oxoglutarate, cell-free); assay type: biochemical
T1 construct: made in house; host or cells: Spodoptera frugiperda insect cells (baculovirus, co-expression of α- and β-subunits)
T1 sequence (P13674 18-534): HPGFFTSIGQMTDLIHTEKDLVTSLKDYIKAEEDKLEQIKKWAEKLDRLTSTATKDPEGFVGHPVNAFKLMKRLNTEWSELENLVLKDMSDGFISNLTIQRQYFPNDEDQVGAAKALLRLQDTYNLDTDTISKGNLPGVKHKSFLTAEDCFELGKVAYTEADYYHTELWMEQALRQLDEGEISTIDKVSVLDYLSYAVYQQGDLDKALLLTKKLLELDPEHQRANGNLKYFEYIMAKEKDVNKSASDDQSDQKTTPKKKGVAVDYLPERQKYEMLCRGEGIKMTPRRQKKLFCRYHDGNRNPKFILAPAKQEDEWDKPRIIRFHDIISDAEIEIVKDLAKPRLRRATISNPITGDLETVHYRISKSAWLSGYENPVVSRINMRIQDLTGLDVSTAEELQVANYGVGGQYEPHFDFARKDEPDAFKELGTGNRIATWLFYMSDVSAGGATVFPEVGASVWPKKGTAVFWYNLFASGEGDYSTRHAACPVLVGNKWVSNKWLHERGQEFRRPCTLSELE
T1 sequence (P07237 18-508 partner): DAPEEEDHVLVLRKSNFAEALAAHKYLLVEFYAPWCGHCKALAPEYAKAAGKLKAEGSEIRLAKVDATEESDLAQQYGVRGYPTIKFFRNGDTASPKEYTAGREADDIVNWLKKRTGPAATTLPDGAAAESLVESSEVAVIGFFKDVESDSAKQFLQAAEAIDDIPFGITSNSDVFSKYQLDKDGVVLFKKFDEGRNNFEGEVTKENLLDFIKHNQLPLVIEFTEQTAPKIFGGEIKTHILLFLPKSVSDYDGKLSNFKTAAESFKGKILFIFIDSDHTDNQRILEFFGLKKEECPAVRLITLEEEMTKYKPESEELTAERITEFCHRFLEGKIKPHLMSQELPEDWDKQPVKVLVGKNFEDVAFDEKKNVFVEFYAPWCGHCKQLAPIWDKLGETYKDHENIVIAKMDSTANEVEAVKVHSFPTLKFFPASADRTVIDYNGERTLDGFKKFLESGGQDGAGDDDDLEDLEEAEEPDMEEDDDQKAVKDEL
Method: The effect on the enzyme was determined in a cell-free system by measuring the oxidative decarboxylation of its cofactor 2-oxoglutarate via release of radiolabeled carbon dioxide in a standard reaction mixture also containing ascorbate, ferrous sulfate, and unhydroxylated peptide substrate.
The inhibitory action of the substances according to the invention, for example on collagen secretion or cell proliferation, can be tested in direct assays of the enzymes mediating the pivotal protein hydroxylations for these biological processes, such as prolyl 4-hydroxylase and deoxyhypusyl hydroxylase. This entails the enzymatic hydroxylation of the appropriate protein precursor, either by the cellular or the purified enzyme, in the presence or absence of compounds of Formulae (I) or (II), with concomitant determination of co-substrate utilization by these enzymes or subsequent isolation of the hydroxylated amino acid and its unhydroxylated precursor. In this manner, the inhibitory potency of any given compound can be measured in the cell-free system, in cell culture, or in tissue, and is expressed as the inhibitory dose that gives a 50% reduction of the enzyme-mediated reaction (ID50). Enzyme is tested in analogy to the method of A. Abbruzzese, H. M. Hanauske-Abel, et al., Biochem. Biophys. Acta, 1077, 159-166 (1991) and of K. Majamaa, H. M. Hanauske-Abel, et al., Eur. J. Biochem. 138, 239-245 (1984), which are hereby incorporated by reference. Table III lists the ID50 values of some of the compounds according to the invention, using purified human prolyl 4-hydroxylase and cellular human deoxyhypusyl hydroxylase as representative protein hydroxylases.
The inhibiting effect of hydroxypyridones on the collagen-hydroxylating enzyme was studied in a cell-free system.
Assay of purified human prolyl 4-hydroxylase
The native α2 β2 -tetrameric enzyme was purified to homogeneity by poly(L-proline) affinity chromatography and DEAE chromatography from the supernatant of Spodoptera frugiperda insect cells cotransfected with recombinant baculovirus transfer vectors for both the human α- and β-subunits. Enzyme activity was determined by trapping of ^14 CO2 released from 2-oxo[1-^14 C][glutarate] according to the procedure of Majamaa, et al., Eur. J. Biochem., 138:239-245 (1984), which is hereby incorporated by reference. Briefly, all incubations were run for 60 minutes at 37° C. in a final volume of 1.0 ml per test sample, containing 0.1 μg enzyme, 0.1 mg heat-denatured (Pro-Pro-Gly)10 ×9 H2 O as hydroxylatable substrate, 0.1 mM 2-oxo[1-^14 C][glutarate] adjusted to 60,000 dpm by mixing with the unlabeled 2-oxoglutarate as cosubstrate, and cofactors (1.6 mM ascorbate, 0.05 mM ferrous sulfate, 0.08 mM dithiothreitol, 2 mg bovine serum albumin, 5 μL catalase). Assays are performed with only one of the active compounds at any given time.

N[C@@H](Cn1ccc(=O)c(O)c1)C(=O)O [L-Mimosine]
inhibition of cellular deoxyhypusyl hydroxylase activity [1]: block the cellular deoxyhypusyl hydroxylase activity | inhibition of the multiplication of certain cells (cell proliferation): reversible inhibitor | inhibition of purified human prolyl 4-hydroxylase ([2]; cell-free system, FIG. 1): directly inhibit | Prolyl 4-hydroxylase ID50 (purified) ([2]; purified human enzyme, inhibitory dose that gives 50% reduction of the enzyme-mediated reaction, unit assumed): 120 µM
